Entries after “also recorded” stand apart in the source; their conditions may differ.
Tests used:
518A2 (melanoma) = experiment: SRB cytotoxicity assay, 518A2; format: cell-based, human; conditions: for EC50: Homo sapiens, SRB assay, 96 h of treatment, 518A2; for Selectivity index (SI) 518A2: SI = EC50 (NIH 3T3)/EC50 (518A2)
Method in brief: (§1)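 96 h drug exposure, ≥6 concs (1, 3, 7, 12, 20, 30 µM), DMSO/DMF ≤0.5%; TCA fix, SRB stain, A570. EC50 from nonlinear 4P Hill fit, mean of 3 expts in triplicate.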

[1] = tested on: A2780 (ovarian carcinoma); experiment: SRB cytotoxicity assay, A2780; format: cell-based, human; conditions: for factor by which activity is reduced compared to doxorubicin hydrochloride (DRC): A2780 tumor cells, EC50 versus DRC; for EC50: Homo sapiens, SRB assay, 96 h of treatment, A2780; for Selectivity index (SI) A2780: SI = EC50 (NIH 3T3)/EC50 (A2780)
Method in brief: as §1

[2] = tested on: HT29 (colon adenocarcinoma); experiment: SRB cytotoxicity assay, HT29; format: cell-based, human; conditions: for EC50: Homo sapiens, HT-29, SRB assay, 96 h of treatment, HT29; for Selectivity index (SI) HT29: SI = EC50 (NIH 3T3)/EC50 (HT29)
Method in brief: as §1

[3] = tested on: MCF-7 (breast adenocarcinoma); experiment: SRB cytotoxicity assay, MCF-7; format: cell-based, human; conditions: for EC50: Homo sapiens, MCF7, SRB assay, 96 h of treatment, MCF-7; for Selectivity index (SI) MCF-7: SI = EC50 (NIH 3T3)/EC50 (MCF-7)
Method in brief: as §1

[4] = tested on: 8505C (thyroid carcinoma); experiment: SRB cytotoxicity assay, 8505C; format: cell-based, human; conditions: for EC50: Homo sapiens, SRB assay, 96 h of treatment, 8505C; for Selectivity index (SI) 8505C: SI = EC50 (NIH 3T3)/EC50 (8505C)
Method in brief: as §1

[5] = tested on: non-malignant mouse fibroblasts NIH 3T3; experiment: SRB cytotoxicity assay, NIH 3T3; format: cell-based; conditions: NIH3T3, 96 h of treatment
Method in brief: as §1

[6] = tested on: several human tumor cell lines; experiment: SRB cytotoxicity assay, cell line panel (summary statements); format: cell-based; conditions: for EC50: Homo sapiens, summary over the cell lines tested; for SI factors (over the cancerous cell lines): SI = EC50 (NIH 3T3)/EC50 (tumor cell line), summary
Description: The cytotoxicity of ursolic and betulinic carboxamides 3–30 was determined in sulforhodamine B (SRB) assays.
The cell lines used were human cancer cell lines: 518A2 (melanoma), A2780 (ovarian carcinoma), HT29 (colon adenocarcinoma), MCF-7 (breast adenocarcinoma), 8505C (thyroid carcinoma) and non-malignant mouse fibroblasts NIH 3T3. Cultures were maintained as monolayers in RPMI 1640 medium with L-glutamine (Capricorn Scientific GmbH, Ebsdorfergrund, Germany) supplemented with 10% heat inactivated fetal bovineserum (Sigma-Aldrich Chemie GmbH, Steinheim, Germany) and penicillin/streptomycin (Capricorn Scientific GmbH, Ebsdorfergrund, Germany) at 37 °C in a humidified atmosphere with 5% CO2.
The cytotoxicity of the compounds was evaluated using the sulforhodamine-B (Kiton-Red S, ABCR) micro culture colorimetric assay. Cells were seeded into 96-well plates on day 0 at appropriate cell densities to prevent confluence of the cells during the period of experiment. After 24 h, the cells were treated with 6 different concentrations (1, 3, 7, 12, 20 and 30 µM) minimum. The final concentration of DMSO/DMF never exceeded 0.5%, which was non-toxic to the cells. After a 96 h treatment, the supernatant medium from the 96-well plates was discarded, the cells were fixed with 10% trichloroacetic acid (TCA) and allowed to rest at 4 °C. After 24 h fixation, the cells were washed in a strip washer and dyed with SRB solution (100 µL, 0.4% in 1% acetic acid) for about 20 min. After dying, the plates were washed four times with 1% acetic acid to remove the excess of the dye and allowed to air-dry overnight. Tris base solution (200 µL, 10 mM) was added to each well and absorbance was measured at λ = 570 nm using a 96-well plate reader (Tecan Spectra, Crailsheim, Germany). The EC50 values were averaged from three independent experiments performed each in triplicate calculated from semi logarithmic dose response curves applying a non-linear 4P Hills-slope equation (GraphPad Prism5; variables top and bottom were set to 100 and 0, respectively).

MCF-7 cells = experiment: AO/PI dye exclusion test, MCF-7; format: cell-based, human; conditions: 24 h
Description: (§2) Extended biological investigations were performed for compounds 25 and 26 using dye exclusion acridine orange (AO)/propidium iodide (PI) assays by treating MCF-7 or A2780 tumor cells with 25 and 26, respectively for 24 h (Figure 3). […] For both compounds, membrane blebbing of some cells could also be observed. These observations can be regarded as indications of apoptosis.
(§3) Morphological characteristics of cell death were analyzed employing an AO/PI assay using human cancer cell lines A2780 and MCF-7. Approximately 8 × 10^5 cells were seeded in cell culture flasks (25 cm^2), and the cells were allowed to grow for 24 h. After removing the used medium, fresh medium was reloaded (or a blank new medium was used as a control). After 24 h, the content of the flask was collected and centrifuged (1200 rpm, 4 °C), and the pellet was gently suspended in phosphate-buffered saline (PBS (w/w), 1 mL) and centrifuged again. The PBS was removed, and the pellet gently suspended in PBS (50 µL) again. The analysis of the cells was performed using a fluorescence microscope after having mixed the cell suspension (10 µL) with a solution of AO/PI (1 µg/mL, 10 µL).

A2780 cells = experiment: AO/PI dye exclusion test, A2780; format: cell-based, human; conditions: 1 µM, 24 h
Description: as §2, §3

SMILES | EC50 (518A2 (melanoma)) | Selectivity index (SI) 518A2 (518A2 (melanoma)) | factor by which activity is reduced compared to doxorubicin hydrochloride (DRC) [1] | EC50 [1] | Selectivity index (SI) A2780 [1] | EC50 [2] | Selectivity index (SI) HT29 [2] | EC50 [3] | Selectivity index (SI) MCF-7 [3] | EC50 [4] | Selectivity index (SI) 8505C [4] | EC50 [5] | EC50 [6] | SI factors (over the cancerous cell lines) [6] | AO/PI fluorescence microscopy, cell morphology (MCF-7 cells; 1 µM) | AO/PI fluorescence microscopy, cell morphology (A2780 cells) | AO/PI fluorescence microscopy, cell morphology (MCF-7 cells; 0.75 µM)
C=C(C)C1CC[C@]2(C(=O)NCCN(C)C)CC[C@]3(C)C(CCC4[C@@]5(C)CC[C@H](O)C(C)(C)C5CC[C@]43C)C12 (stereo partly drawn) [Compound 25, (3β)-N-[2-(Dimethylamino)ethyl]-3-hydroxy-lup-20(29)-en-28-amide] | 300 ± 160 nM | 1.00 | 20 | 200 ± 10 nM | 1.50 | 300 ± 50 nM | 1.00 | 300 ± 70 nM | 1.00 | 400 ± 40 nM | 0.75 | 300 ± 90 nM | < 1000 nM | ~1 | both apoptotic (membrane blebbing, marked by white arrows in Figure 3) and necrotic cells (red staining) | both green colored cells as well as late-stage apoptotic cells | 
C=C(C)C1CC[C@]2(C(=O)NCCN3CCCC3)CC[C@]3(C)C(CCC4[C@@]5(C)CC[C@H](O)C(C)(C)C5CC[C@]43C)C12 (stereo partly drawn) [Compound 26, (3β)-N-(2-Pyrrolidin-1-ylethyl)-3-hydroxy-lup-20(29)-en-28-amide] | 400 ± 60 nM | 1.00 | 30 | 300 ± 100 nM | 1.33 | 400 ± 20 nM | 1.00 | 200 ± 50 nM | 2.00 | 500 ± 60 nM | 0.80 | 400 ± 20 nM | < 1000 nM | ~1 |  | both green colored cells as well as late-stage apoptotic cells | intact cell membranes (green staining); also recorded: protrusions in the plasma membrane (blebbing) of some cells
